Data on 27 molecules can be found in US20090018134A1, “Compounds - 945” (AstraZeneca AB, priority 2007, published 2009).

T1 sequence (P42345 1362-2549): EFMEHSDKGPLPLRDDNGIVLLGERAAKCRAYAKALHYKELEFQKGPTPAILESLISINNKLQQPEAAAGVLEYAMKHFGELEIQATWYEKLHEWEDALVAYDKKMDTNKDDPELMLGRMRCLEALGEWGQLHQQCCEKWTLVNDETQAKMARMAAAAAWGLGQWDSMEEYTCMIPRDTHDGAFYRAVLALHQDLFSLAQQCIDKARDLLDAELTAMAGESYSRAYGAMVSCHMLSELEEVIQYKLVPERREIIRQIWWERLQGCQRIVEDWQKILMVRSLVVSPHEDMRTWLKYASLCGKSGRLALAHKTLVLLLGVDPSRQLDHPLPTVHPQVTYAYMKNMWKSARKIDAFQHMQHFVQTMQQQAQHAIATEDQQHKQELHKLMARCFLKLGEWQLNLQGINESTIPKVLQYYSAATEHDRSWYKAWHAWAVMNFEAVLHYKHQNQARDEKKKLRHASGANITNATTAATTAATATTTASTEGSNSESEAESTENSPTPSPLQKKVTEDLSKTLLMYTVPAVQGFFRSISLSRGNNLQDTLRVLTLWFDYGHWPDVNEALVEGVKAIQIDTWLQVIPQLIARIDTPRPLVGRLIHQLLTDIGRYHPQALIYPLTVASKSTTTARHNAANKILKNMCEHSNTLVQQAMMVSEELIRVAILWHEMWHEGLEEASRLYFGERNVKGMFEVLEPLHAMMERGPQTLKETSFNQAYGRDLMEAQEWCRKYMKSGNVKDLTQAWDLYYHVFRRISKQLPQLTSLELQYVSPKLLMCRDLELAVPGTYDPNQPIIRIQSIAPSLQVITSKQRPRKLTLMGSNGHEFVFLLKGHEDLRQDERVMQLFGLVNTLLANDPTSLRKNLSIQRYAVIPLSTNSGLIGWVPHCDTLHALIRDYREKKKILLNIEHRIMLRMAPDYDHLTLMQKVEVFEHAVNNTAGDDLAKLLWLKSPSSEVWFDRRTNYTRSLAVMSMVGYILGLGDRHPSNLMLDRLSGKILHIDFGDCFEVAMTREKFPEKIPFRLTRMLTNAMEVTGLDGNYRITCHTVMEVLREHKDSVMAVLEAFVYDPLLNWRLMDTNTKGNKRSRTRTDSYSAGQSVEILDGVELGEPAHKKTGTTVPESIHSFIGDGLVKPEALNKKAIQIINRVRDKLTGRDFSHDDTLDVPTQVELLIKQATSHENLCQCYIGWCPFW

The first experiment addresses T1, mTOR (Homo sapiens, UniProt P42345).
T1 construct: FLAG; made in house
The experiment can be described thus: In Vitro mTOR Kinase Assay (Echo), Test (a)(ii). Format: biochemical. To be noted: read-out: mTOR Kinase Assay (Echo). Summed up: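 FLAG-tagged truncated mTOR (residues 1362-2549), expressed in HEK293 and purified via the FLAG tag, phosphorylated a biotinylated peptide over 2 hours at room temperature. EDTA stopped the reaction. Phospho-T389 was detected overnight by AlphaScreen using the p70 S6K T389 antibody with Protein A/streptavidin beads; IC50 reported.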
For `C[C@H]1COCCN1c1cc(C2(S(C)(=O)=O)CC2)nc(-c2ccc(NC(=O)NCCN3CCCC3)cc2)n1` [Example 2y, 1-[4-[4-[(3S)-3-methylmorpholin-4-yl]-6-(1-methylsulfonylcyclopropyl)pyrimidin-2-yl]phenyl]-3-(2-pyrrolidin-1-ylethyl)urea], the IC50 was 230 nM.
Same read-out and setting: the value for `CC(C)S(=O)(=O)C1(c2cc(N3CCOC[C@@H]3C)nc(-c3ccc(NC(=O)NC4CCC4)cc3)n2)CC1` [Example 7c, 3-cyclobutyl-1-[4-[4-[(3S)-3-methylmorpholin-4-yl]-6-(1-propan-2-ylsulfonylcyclopropyl)pyrimidin-2-yl]phenyl]urea] was 6.46 nM.
The same measure, in the same setting: in the case of `C[C@H]1COCCN1c1cc(C2(S(C)(=O)=O)CC2)nc(-c2ccc(NC(=O)Nc3ccn(C)n3)cc2)n1` [Example 2ad, 1-[4-[4-[(3S)-3-methylmorpholin-4-yl]-6-(1-methylsulfonylcyclopropyl)pyrimidin-2-yl]phenyl]-3-(1-methylpyrazol-3-yl)urea] it was 0.705 nM; in that of `C[C@H]1COCCN1c1cc(C2(S(=O)(=O)c3ccc(F)cc3)CC2)nc(-c2ccc(NC(=O)NCCN(C)C)cc2)n1` [Example 8g, 3-(2-dimethylaminoethyl)-1-[4-[4-[1-(4-fluorophenyl)sulfonylcyclopropyl]-6-[(3S)-3-methylmorpholin-4-yl]pyrimidin-2-yl]phenyl]urea], 61.3 nM.
Same read-out and setting: the value for `C[C@H]1COCCN1c1cc(C2(S(C)(=O)=O)CC2)nc(-c2ccc(NC(=O)NCc3ncn[nH]3)cc2)n1` [Example 2ag, 1-[4-[4-[(3S)-3-methylmorpholin-4-yl]-6-(1-methylsulfonylcyclopropyl)pyrimidin-2-yl]phenyl]-3-(2H-1,2,4-triazol-3-ylmethyl)urea] was 14.9 nM.

The experiment is the same for the next values; noted with them: table of enzyme assay Test (a)(ii); read-out: Test (a)(ii) IC50.
As to `C[C@H]1COCCN1c1cc(C2(S(=O)(=O)CCO)CC2)nc(-c2ccc(NC(=O)NCCC#N)cc2)n1` [Example 16g, 3-(2-cyanoethyl)-1-[4-[4-[1-(2-hydroxyethylsulfonyl)cyclopropyl]-6-[(3S)-3-methylmorpholin-4-yl]pyrimidin-2-yl]phenyl]urea], the IC50 amounted to 17.6 nM.
The same measure, in the same setting: the value for `C[C@H]1COCCN1c1cc(C2(S(=O)(=O)c3ccc(Cl)cc3)CC2)nc(-c2ccc(NC(=O)Nc3ccon3)cc2)n1` [Example 64ai, 1-[4-[4-[1-(4-chlorophenyl)sulfonylcyclopropyl]-6-[(3S)-3-methylmorpholin-4-yl]pyrimidin-2-yl]phenyl]-3-(1,2-oxazol-3-yl)urea] was 5.67 nM; that for `C[C@H]1COCCN1c1cc(C2(S(=O)(=O)C3CCOCC3)CC2)nc(-c2ccc(NC(=O)NC3CCC3)cc2)n1` [Example 94f, 3-cyclobutyl-1-[4-[4-[(3S)-3-methylmorpholin-4-yl]-6-[1-(oxan-4-ylsulfonyl)cyclopropyl]pyrimidin-2-yl]phenyl]urea] was 15.1 nM; that for `C[C@H]1COCCN1c1cc(C2(S(=O)(=O)c3cncc(F)c3)CC2)nc(-c2ccc(NC(=O)NCCO)cc2)n1` [Example 17, 1-[4-[4-[1-(5-Fluoropyridin-3-yl)sulfonylcyclopropyl]-6-[(3S)-3-methylmorpholin-4-yl]pyrimidin-2-yl]phenyl]-3-(2-hydroxyethyl)urea] was 1.16 nM.
Still for that read-out and setting: the value for `CCNC(=O)Nc1ccc(-c2nc(N3CCOC[C@@H]3C)cc(C3(S(=O)(=O)c4ccccc4)CCOCC3)n2)cc1` [Example 36cz, 3-[4-[4-[4-(benzenesulfonyl)oxan-4-yl]-6-[(3S)-3-methylmorpholin-4-yl]pyrimidin-2-yl]phenyl]-1-ethylurea] was 38.4 nM.
On the same count and under the same terms, the value for `C[C@H]1COCCN1c1cc(C2(S(C)(=O)=O)CC2)nc(-c2ccc(NC(=O)NCCO)c(F)c2)n1` [Example 52c, 1-[2-fluoro-4-[4-[(3S)-3-methylmorpholin-4-yl]-6-(1-methylsulfonylcyclopropyl)pyrimidin-2-yl]phenyl]-3-(2-hydroxyethyl)urea] was 29.6 nM; that for `Cc1csc(S(=O)(=O)C2(c3cc(N4CCOC[C@@H]4C)nc(-c4ccc(NC(=O)Nc5ncns5)cc4)n3)CC2)n1` [Example 36p, 1-[4-[4-[(3S)-3-methylmorpholin-4-yl]-6-[1-[(4-methyl-1,3-thiazol-2-yl)sulfonyl]cyclopropyl]pyrimidin-2-yl]phenyl]-3-(1,2,4-thiadiazol-5-yl)urea] was 1.61 nM; that for `C[C@H]1COCCN1c1cc(C2(S(=O)(=O)c3ccc(F)cc3)CC2)nc(-c2ccc(NC(=O)NCCN(C)C)cc2)n1` [Example 8g, 3-(2-dimethylaminoethyl)-1-[4-[4-[1-(4-fluorophenyl)sulfonylcyclopropyl]-6-[(3S)-3-methylmorpholin-4-yl]pyrimidin-2-yl]phenyl]urea] was 78.4 nM.
As for `C[C@H]1COCCN1c1cc(C2(S(=O)(=O)CCCO)CC2)nc(-c2ccc(NC(=O)NCCS(C)(=O)=O)cc2)n1` [Example 36cq, 1-[4-[4-[1-(3-hydroxypropylsulfonyl)cyclopropyl]-6-[(3S)-3-methylmorpholin-4-yl]pyrimidin-2-yl]phenyl]-3-(2-methylsulfonylethyl)urea], the IC50 came to 114 nM.
On the same count and under the same terms, the value for `CC(C)NC(=O)Nc1ccc(-c2nc(N3CCOC[C@@H]3C)cc(C3(S(=O)(=O)c4ccc(Cl)cc4)CC3)n2)cc1` [Example 27d, 1-[4-[4-[1-(4-chlorophenyl)sulfonylcyclopropyl]-6-[(3S)-3-methylmorpholin-4-yl]pyrimidin-2-yl]phenyl]-3-propan-2-ylurea] was 3.07 nM.
On the same count and under the same terms, the value for `O=C(Nc1ccc(-c2nc(N3CCOCC3)cc(C3(S(=O)(=O)c4ccccn4)CC3)n2)cc1)NC1CC1` [Example 56, 3-Cyclopropyl-1-[4-[4-morpholin-4-yl-6-(1-Pyridin-2-ylsulfonylcyclopropyl)pyrimidin-2-yl]phenyl]urea] was 2.31 nM; that for `Cc1ccccc1S(=O)(=O)C1(c2cc(N3CCOC[C@@H]3C)nc(-c3ccc(NC(=O)NC4CC4)cc3)n2)CC1` [Example 54a, 3-cyclopropyl-1-[4-[4-[(3S)-3-methylmorpholin-4-yl]-6-[1-(2-methylphenyl)sulfonylcyclo-propyl]pyrimidin-2-yl]phenyl]urea] was 9.18 nM; that for `C[C@H]1COCCN1c1cc(C2(S(=O)(=O)c3ccccn3)CC2)nc(-c2ccc(NC(=O)NCCN(C)C)cc2)n1` [Example 28f, 3-(2-dimethylaminoethyl)-1-[4-[4-[(3S)-3-methylmorpholin-4-yl]-6-(1-pyridin-2-ylsulfonylcyclopropyl)pyrimidin-2-yl]phenyl]urea] was 67.4 nM.
On the same count and under the same terms, in the case of `Cc1nc(C)c(S(=O)(=O)C2(c3cc(N4CCOC[C@@H]4C)nc(-c4ccc(NC(=O)NC5CC5)cc4)n3)CC2)s1` [Example 78, 3-Cyclopropyl-1-[4-[4-[1-[(2,4-dimethyl-1,3-thiazol-5-yl)sulfonyl]cyclopropyl]-6-[(3S)-3-methylmorpholin-4-yl]pyrimidin-2-yl]phenyl]urea] it was 41.8 nM; in that of `C[C@H]1COCCN1c1cc(C2(S(=O)(=O)c3ccccc3)CC2)nc(-c2ccc(NC(=O)NCCF)cc2)n1` [Example 36ds, 1-[4-[4-[1-(benzenesulfonyl)cyclopropyl]-6-[(3S)-3-methylmorpholin-4-yl]pyrimidin-2-yl]phenyl]-3-(2-fluoroethyl)urea], 0.973 nM; in that of `C[C@H]1COCCN1c1cc(C2(S(=O)(=O)C3CCOC3)CC2)nc(-c2ccc(NC(=O)NCCO)cc2)n1` (stereo partly drawn) [Example 94j, 3-(2-hydroxyethyl)-1-[4-[4-[(3S)-3-methylmorpholin-4-yl]-6-[1-(oxolan-3-ylsulfonyl)cyclopropyl]pyrimidin-2-yl]phenyl]urea], 6.05 nM.
Consider `C[C@H]1COCCN1c1cc(C2(S(=O)(=O)c3ccc(F)cc3)CCC2)nc(-c2ccc(NC(=O)NCc3ncc[nH]3)cc2)n1` [Example 65, 1-[4-[4-[1-(4-Fluorophenyl)sulfonylcyclobutyl]-6-[(3S)-3-methylmorpholin-4-yl]pyrimidin-2-yl]phenyl]-3-(1H-imidazol-2-ylmethyl)urea], for which the IC50 stood at 30 nM.
Consider `Cn1cc(NC(=O)Nc2ccc(-c3nc(N4CCOCC4)cc(C4(S(=O)(=O)c5ccncc5)CC4)n3)cc2)cn1` [Example 36as, 1-(1-methylpyrazol-4-yl)-3-[4-[4-morpholin-4-yl-6-(1-pyridin-4-ylsulfonylcyclopropyl)pyrimidin-2-yl]phenyl]urea], for which the IC50 is 9.11 nM.
Still for that read-out and setting: in the case of `Cc1noc(C)c1S(=O)(=O)C1(c2cc(N3CCOC[C@@H]3C)nc(-c3ccc(NC(=O)Nc4cnn(C)c4)cc3)n2)CC1` [Example 59g, 1-[4-[4-[1-[(3,5-dimethyl-1,2-oxazol-4-yl)sulfonyl]cyclopropyl]-6-[(3S)-3-methylmorpholin-4-yl]pyrimidin-2-yl]phenyl]-3-(1-methylpyrazol-4-yl)urea] it was 101 nM.
On the same count and under the same terms, the value for `C[C@H]1COCCN1c1cc(C2(S(=O)(=O)c3ccccc3)CC2)nc(-c2ccc(NC(=O)NCc3ncc[nH]3)cc2)n1` [Example 36bn, 1-[4-[4-[1-(benzenesulfonyl)cyclopropyl]-6-[(3S)-3-methylmorpholin-4-yl]pyrimidin-2-yl]phenyl]-3-(1H-imidazol-2-ylmethyl)urea] was 6.37 nM; that for `C[C@H]1COCCN1c1cc(C2(S(=O)(=O)CCCO)CCOCC2)nc(-c2ccc(NC(=O)NCCC#N)cc2)n1` [Example 36ce, 3-(2-cyanoethyl)-1-[4-[4-[4-(3-hydroxypropylsulfonyl)oxan-4-yl]-6-[(3S)-3-methylmorpholin-4-yl]pyrimidin-2-yl]phenyl]urea] was 420 nM; that for `C[C@H]1COCCN1c1cc(C2(S(=O)(=O)CCCO)CCC2)nc(-c2ccc(NC(=S)NC3CC3)cc2)n1` [Example 99b, 3-cyclopropyl-1-[4-[4-[1-(3-hydroxypropylsulfonyl)cyclobutyl]-6-[(3S)-3-methylmorpholin-4-yl]pyrimidin-2-yl]phenyl]thiourea] was 31.6 nM.
On the same count and under the same terms, the value for `C[C@@H](CO)NC(=O)Nc1ccc(-c2nc(N3CCOC[C@@H]3C)cc(C3(S(=O)(=O)c4ccccc4)CCC3)n2)cc1` [Example 64p, 1-[4-[4-[1-(benzenesulfonyl)cyclobutyl]-6-[(3S)-3-methylmorpholin-4-yl]pyrimidin-2-yl]phenyl]-3-[(2S)-1-hydroxypropan-2-yl]urea] was 3.98 nM.
